According to article PMC10600239, “Selective MCL-1 inhibitor ABBV-467 is efficacious in tumor models but is associated with cardiac troponin increases in patients” (Communications Medicine, 2023):
Several values for one entry are separate records, joined by “and”; a condition that tells them apart may be missing. Equal entries are not always repeated. Where two headings read alike, the source gives them in different places.

Key:
[1] = biological target: BCL-2 (Homo sapiens, UniProt P10415); assay: Time-resolved FRET binding assay; details: TR-FRET
Experimental: (§1) Binding affinities for MCL-1, BCL-2, BCL-XL, BCL-W, and BCL2-A1 were determined using a time-resolved fluorescence resonance energy transfer (FRET) assay. Test compounds were serially diluted in DMSO starting at […] (20× starting concentration; 100% DMSO followed by a 1:10 dilution of the compound DMSO plate into assay buffer); 10 µL of the compound in 10% DMSO was then transferred into a 384-well plate (low-volume Corning #3673 assay plate). Glutathione S-transferase (GST)-tagged recombinant BCL-2, BCL-XL, MCL-1, BCL-W, or BCL2-A1 protein (1 nM each) were mixed with 100 nM Oregon Green™-labeled f-BAK peptide probe and 1 nM Tb-labeled anti-GST antibody were mixed. Then 10 µL of a 2× protein/probe/antibody mix was added to each well of increasing concentrations of test compound in assay buffer (20 mM potassium phosphate, pH 7.6, 50 mM NaCl, 1 mM ethylenediaminetetraacetic acid disodium salt dihydrate, 0.05% pluronic acid F-68, 1 mM DL-dithiothreitol) at room temperature (final concentrations listed in Supplementary Table S2). The samples were then mixed on a shaker for 1 min and incubated for an additional 1 h at room temperature. For each assay plate, a probe/antibody and protein/antibody/probe mixture were included as a negative and a positive control, respectively. Fluorescence was measured on the EnVision™ (Perkin Elmer) using a 340/35-nm excitation filter and 520/525- (F-Bak) and 495/510-nm (Tb-labeled anti-glutathione S-transferase [GST] antibody) emission filters. Dissociation constants were determined using Wang’s equation[35]. The time-resolved FRET assay can be performed in the presence of varying concentrations of human serum to determine apparent half-maximal inhibitory concentration after serum protein binding.

[2] = biological target: T1, BCL-W (Homo sapiens, UniProt Q92843); assay: Time-resolved FRET binding assay
T1 sequence (Q92843 1-193): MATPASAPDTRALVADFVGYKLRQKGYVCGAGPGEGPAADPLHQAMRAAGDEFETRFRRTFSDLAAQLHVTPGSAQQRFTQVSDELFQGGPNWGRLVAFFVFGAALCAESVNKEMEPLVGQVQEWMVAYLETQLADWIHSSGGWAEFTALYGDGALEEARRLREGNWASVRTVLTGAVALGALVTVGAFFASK
Experimental: as §1

[3] = biological target: T2, BCL2-A1 (Homo sapiens, UniProt Q16548); assay: Time-resolved FRET binding assay; details: TR-FRET, individual determinations; read-out: Individual Ki, BCL2-A1
T2 sequence (Q16548 1-175): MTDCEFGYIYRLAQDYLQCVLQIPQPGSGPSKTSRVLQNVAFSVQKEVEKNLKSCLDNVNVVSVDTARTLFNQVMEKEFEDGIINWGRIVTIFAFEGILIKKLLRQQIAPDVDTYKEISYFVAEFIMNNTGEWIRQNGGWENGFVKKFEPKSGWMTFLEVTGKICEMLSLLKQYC
Experimental: as §1

[4] = system: H929 cells; assay: Caspase-3/7 activation, Δψm and annexin-V positivity by flow cytometry; format: cell-based, human; set-up: MMP / H929 zVAD Fig 2C: unit not given here; details: for Caspase-3/-7 Activation / MMP / H929 zVAD Fig 2C: H929; for Caspase-3/-7 Activation: Fig 2A; for MMP: Fig 2B
Experimental: H929 cells cultured in RPMI 1640 medium (Sigma, St. Louis, MO) supplemented with 10% fetal bovine serum (Gibco, Grand Island, NY) were pretreated with a pan-caspase inhibitor z-VAD-fmk (MP Biomedicals, Solon, OH; 50 µM) for 1 h before the addition of ABBV-467 for a further 6 h. Cells were then washed twice with Dulbecco’s phosphate-buffered saline and resuspended in staining buffer for determination of caspase-3/7 activation, Δψm, and annexin-V positivity using the Intellicyt MultiCyt 4-Plex Kit and high-content flow cytometry (Intellicyt, Albuquerque, NM).

[5] = Anesthetized dog cardiovascular safety pharmacology; format: in vivo; details: anesthetized beagle, IV 1, 3 and 10 mg/kg
Description: ABBV-467 was profiled in safety pharmacology studies in anesthetized (non-Good Laboratory Practice [GLP]) and telemetry-instrumented conscious (GLP) dog cardiovascular assays (Supplementary Table S6).
Supplementary Table S6: Maj or findings in safety pharmac ology cardiovascular studies c onduc ted with ABBV- […]
Species/Strain Route of Concentrations Sex and N Results
Administration or Doses per Group […]
Anesthetized IV 1, 3, and Male No effects up to a plasma concentration dog 10 m g/ k gN=4 o f 16 .83 µg/mL on […]
aged 8-12 months • Heart rate
• Systemic vascular resistance
At 67 .23 mg/m L, an increase in heart rate and decrease in systemic vascular
Conscious IV 0, 0.3, 1, and Male No effects on blood pressure, heart dog 3 mg/kg N=5–6a rate, or ECG parameters at any dose beagle (plasma concentration of 6.53 µg/mL at (aged 8-12 months 3-m g/ k g do s e )
ECG, electrocardiogram; IC50, half maximal inhibitory concentration; IV, intravenous; QTcV, QT interval correct ed accor ding to the Van de Water formula. No animals or data were excl uded from analysis . […] Healthy dogs, as determined by veterinary physical examination and clinical pathology, were selected for study based on availability without explicit randomization. […] Power analysis has shown a group size of 6 can statistically detect an approximately 20 % alteration in measured parameters w ith α =0.0 5. […]

BCL-2, sequence (P10415 whole entry): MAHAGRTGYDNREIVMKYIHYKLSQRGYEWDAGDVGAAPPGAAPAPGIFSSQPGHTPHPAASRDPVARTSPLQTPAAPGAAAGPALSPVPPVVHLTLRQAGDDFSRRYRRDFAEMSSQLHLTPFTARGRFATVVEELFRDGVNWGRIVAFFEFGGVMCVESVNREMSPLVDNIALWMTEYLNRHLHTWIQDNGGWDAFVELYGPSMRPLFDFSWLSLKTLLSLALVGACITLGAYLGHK

With `Cc1c(Cl)c2c(Cl)c(C)c1-c1c(-c3ccc(F)cc3)sc3ncnc(c13)O[C@@H](C(=O)O)Cc1cc(ccc1OCc1ccnc(-c3ccc(OC[C@H]4COCCO4)cc3)n1)OC[C@@H](CN1CCN(C)CC1)O2` [ABBV-467] the Ki ([1]; arithmetic mean, read-out: Arithmetic Mean Ki, BCL-2) was over 0.642 µM, the Ki ([1]; individual determinations, read-out: Individual Ki, BCL-2) was over 0.642 µM and the Ki ([2]; TR-FRET, arithmetic mean, read-out: Arithmetic Mean Ki, BCL-W) was over 247 nM. For the same compound, the Ki ([2]; TR-FRET, individual determinations, read-out: Individual Ki, BCL-W) was over 247 nM, the Ki ([2]; read-out: TR-FRET, Ki, nM BCL-W) was over 247 nM and the Ki [3] was 402 nM and > 468 nM (2×). For the same compound, the Caspase-3/-7 Activation ([4]; Log [ABBV-467] uM 0.045757) was 53.8099 and 53.0567 and 99.0546 and 98.9774, the Caspase-3/-7 Activation ([4]; Log [ABBV-467] uM 0.522879) was 56.0913 and 57.1822 and 99.1897 and 99.0858 and the Caspase-3/-7 Activation ([4]; Log [ABBV-467] uM 1) was 64.5099 and 63.3101 and 99.1237 and 99.059. The MMP ([4]; Log [ABBV-467] uM 1) was 45.9293, the Caspase-3/-7 Activation ([4]; Log [ABBV-467] uM -0.43136) was 50.714 and 51.6373 and 98.7601 and 98.6341 and the MMP ([4]; Log [ABBV-467] uM -0.90849) was 38.9227. The Caspase-3/-7 Activation ([4]; Log [ABBV-467] uM -1.86273) was 33.5112 and 33.8695 and 61.3327 and 57.2365, the MMP ([4]; Log [ABBV-467] uM -1.86273) was 31.9106 and 36.0956 and 42.4956 and 39.7476 and the Caspase-3/-7 Activation ([4]; Log [ABBV-467] uM -2.33985) was 30.5735 and 30.5502 and 33.1767 and 32.117. For the same compound, the MMP ([4]; Log [ABBV-467] uM -2.81697) was 29.9048, the “H929 zVAD Fig 2C” value ([4]; Vehicle, Log [ABBV-467] uM 0.522879) was 78.4582 and 79.5333 and 93.9539 and 93.9739 and the “H929 zVAD Fig 2C” value ([4]; Vehicle, Log [ABBV-467] uM 1) was 82.31 and 82.4987 and 93.6098 and 94.0208. The “H929 zVAD Fig 2C” value ([4]; Vehicle, Log [ABBV-467] uM -0.90849) was 61.8581 and 57.4223 and 88.7815 and 89.1451, the “H929 zVAD Fig 2C” value ([4]; Vehicle, Log [ABBV-467] uM -1.86273) was 33.1301 and 34.5804 and 48.8387 and 44.3698 and the “H929 zVAD Fig 2C” value ([4]; Vehicle, Log [ABBV-467] uM -2.81697) was 10.2236. For the same compound, the “H929 zVAD Fig 2C” value ([4]; z-VAD-fmk, Log [ABBV-467] uM 0.045757) was 25.2697, the “H929 zVAD Fig 2C” value ([4]; z-VAD-fmk, Log [ABBV-467] uM 1) was 9.553 and 7.075 and the “H929 zVAD Fig 2C” value ([4]; z-VAD-fmk, Log [ABBV-467] uM -0.43136) was 25.945. For the same compound, the “H929 zVAD Fig 2C” value ([4]; z-VAD-fmk, Log [ABBV-467] uM -1.38561) was 25.2659, the “H929 zVAD Fig 2C” value ([4]; z-VAD-fmk, Log [ABBV-467] uM -1.86273) was 25.2352 and the “H929 zVAD Fig 2C” value ([4]; z-VAD-fmk, Log [ABBV-467] uM -2.33985) was 25.2036. For the same compound, the “hallmarks of apoptosis induced” value ([4]; H929 cells, 6 h) was “dose-dependent loss in mitochondrial membrane potential, caspase-3/7 activation, and phosphatidyl serine externalization”, the “effect of pan-caspase inhibition with z-VAD-fmk on induced apoptosis” value ([4]; z-VAD-fmk 50 µM) was “abrogated” and the “plasma concentration up to which no effects on blood pressure, heart rate, contractility, systemic vascular resistance, cardiac output, QTcV, QRS, PR interval” value [5] was 16 .83 µg/mL.
